Results: article PMC12228718, “A porin-like protein used by bacterial predators defines a wider lipid-trapping superfamily” (Nature Communications, 2025)
Values belong to the molecule of their own block, whether it stands above or below them.

What was measured:
PopA (Bd0427; PopAΔSP) = target: T1, PopA (Bd0427; PopAΔSP) (Bdellovibrio bacteriovorus, UniProt Q6MQN4); experiment: X-ray crystallography (C222_[…] Å); type: binding; conditions: palmitate modelled in difference density behind loop 2 helix, carboxylate to R88; ligand not added, placed after AlphaFold3 suggestion
T1 construct: aa 21-353, signal peptide removed; selenomethionyl form A phased; homopentamer
T1 sequence (Q6MQN4 entry or part of it, stated change not applied): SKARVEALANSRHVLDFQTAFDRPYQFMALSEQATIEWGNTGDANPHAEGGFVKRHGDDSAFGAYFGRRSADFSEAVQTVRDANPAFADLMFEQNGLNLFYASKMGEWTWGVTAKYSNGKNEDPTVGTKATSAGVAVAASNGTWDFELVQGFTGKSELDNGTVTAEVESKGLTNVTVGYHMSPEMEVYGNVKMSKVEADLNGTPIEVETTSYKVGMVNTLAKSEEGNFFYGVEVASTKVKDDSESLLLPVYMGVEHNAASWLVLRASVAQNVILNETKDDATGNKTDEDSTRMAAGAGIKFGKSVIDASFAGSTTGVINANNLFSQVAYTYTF

[1] = target: PopAhis (mature PopA with an internal His tag in loop 2), natively folded (B. bacteriovorus HD100); experiment: cryo-EM structure; native PopAhis, 0.02 mg/mL in 50 mM Tris pH 8, 150 mM NaCl, 0.03% w/v DDM; 2.85 Å in C1 symmetry, 2.66 Å in C5 symmetry
[2] = target: PopAΔSP (Bd0427, aa 21-353), refolded (B. bacteriovorus HD100); experiment: crystal structure; refolded PopAΔSP in β-OG detergent; C222(1) crystal form, 2.8 Å; five copies in the asymmetric unit
PopAhis = target: T2, PopAhis (Bdellovibrio bacteriovorus, UniProt Q6MQN4); experiment: liposome swelling assay (OD400); type: biochemical; conditions: relative to OmpF with L-arabinose = 100%; pH 7.0 proteoliposomes; passive permeation
T2 construct: gene Bd0427; mature PopA with internal His tag SSHHHHHHGSS inserted after A103 (loop 2); pelB leader at start; pET29b, E. coli BL21(DE3) RIPL; native folded, DDM-solubilised; homopentamer
T2 sequence (Q6MQN4 entry or part of it): as the sequence (Q6MQN4 entry or part of it, stated change not applied) above

Molecule: CCCCCCCCCCCCCCCC(=O)O [palmitate]
X-ray crystallography (C222_1, 2.8 Å) (PopA (Bd0427; PopAΔSP)): Refinement verified that palmitate fits the density well (Fig. 2h)

stoichiometry N [1]: 5
Molecule: PopAhis (mature PopA with an internal His tag in loop 2), natively folded (natural protein)

stoichiometry N [2]: 5
Molecule: PopAΔSP (Bd0427, aa 21-353), refolded (natural protein)

Molecule: C[C@H](N)C(=O)O [alanine]
relative swelling rate (PopAhis): only able to permit the passage of small substrates, notably glycine and alanine (Fig. 3e)

Molecule: NCC(=O)O [glycine]
relative swelling rate (PopAhis): only able to permit the passage of small substrates, notably glycine and alanine (Fig. 3e)
